Tested on: Streptococcus agalactiae - clinical strain
Assay: Determination of the MIC value of totarol, broth dilution in 96-well plates with OD and quantitative culture
Assay type: cell-based
Settings: for OD, average of 3 measurements / OD: 620 nm
Description: Test of antibacterial activity of totarol using DMI (dimethylisosorbide) as a solvent.
1 ml of the suspension was collected to 9 ml of a TSB broth ([…]). Suspensions with a dilution of 10^−6 were prepared in the described way. A suspension with a cell density of 10^5 cfu/ml was selected for further investigations. For each strain, 2 96-well plates were prepared: the first one was intended for the OD measurement, the second one—for quantitative culture on solid media. • A/ to wells B1-D1, B2-D2 and B-D 4-11, 100 µl of the broth were added; • B/ to wells B3-D3, 200 µl of the broth were added; • C/ to wells B1-D1, 1 µl of stock I was added; • D/ to wells B2-D2, 1 µl of stock II was added; • E/ to wells B3-D3, 2 µl of stock III were added. Using a multichannel pipette, 100 µl of the sample were collected from each of the B3-D3 wells and placed in wells B4-D4 (mixing by sucking the content in and letting it out for 5 times). The pipette tips were replaced and 100 µl of the content were collected from of the B4-D4 wells, and placed in wells B5-D5, mixing as previously. These operations were repeated through the wells B11-D11. The content in the B11-D11 wells was mixed, and 100 µl of the fluid were collected and discarded. This way, a series of dilutions of totarol samples in DMI in the range of 0.32% to 0.0004% was obtained. Then, 100 µl of a corresponding bacterial culture were added to the wells B, C, D 1-11. In consequence, a change in the final concentration range occurred, to 0.16%-0.0002%. Control Preparation: • Negative control: 100 µl of the broth+1 pl DMI were added to the Al well. • Positive control (I): 100 µl of the broth with the bacterial culture were added to the wells E1-G1. • Diluent positive control (II): 100 µl of the broth with the bacterial culture+1 pl DMI were added to the wells E2-G2. The OD value in the individual wells was read at the wavelength of 620 nm (read time 0). From the second 96-well plate, a culture was inoculated by a quantitative method from every dilution onto a well with a proper solid medium, and incubated for 24 h at 37° C. under aerobic or anaerobic conditions, depending on the strain. The plates were incubated under aerobic conditions or in an atmosphere of an elevated CO2 concentration (for the strains requiring it) in an incubator at 37° C. The OD was read after 8 h, 16 h, and 24 h, respectively. Before every OD measurement, the contents of the wells were mixed delicately. In parallel to the OD readout, cultures we inoculated from the second 96-well plate, from every dilution, into plates with a proper solid medium, and incubated for 24 h at 37° C., under aerobic or anaerobic conditions. For the analysis of the experimental results, an average value of the OD measurement obtained from three repetitions in the individual times (0, 8, 16, and 24 h) for the individual microbes (Gardnerella vaginalis, Streptococcus agalactiae, Enterococcus faecalis, Lactobacillus gasseri/plantarum) was taken. Additionally, the number of bacteria grown on solid media was taken into account. The results of the tests confirm the specific, concentration-dependent selectiveness, and the high antibacterial effectiveness of totarol against the pathogenic microorganisms: Gardnerella vaginalis, Streptococcus agalactiae, Enterococcus faecalis at low MIC values safe for bacteria of the Lactobacillus genus.

Structure (SMILES): CC(C)c1c(O)ccc2c1CC[C@H]1C(C)(C)CCC[C@]21C [Totarol, totarol]
- MIC value (S. agalactiae): 0.0013%
- Viable bacterial count by quantitative culture (cfu/ml) (totarol 0.0002%, 0 h): 3.4 × 10^5 cfu/ml
- OD, average of 3 measurements (totarol 0.0002%, 0 h): 0.289
- Viable bacterial count by quantitative culture (cfu/ml) (totarol 0.0002%, 8 h): 4 × 10^6 cfu/ml
- OD, average of 3 measurements (totarol 0.0002%, 8 h): 0.314
- Viable bacterial count by quantitative culture (cfu/ml) (totarol 0.0002%, 16 h): 1.1 × 10^6 cfu/ml
- OD, average of 3 measurements (totarol 0.0002%, 16 h): 0.498
- Viable bacterial count by quantitative culture (cfu/ml) (totarol 0.0002%, 24 h): 1 × 10^7 cfu/ml
- OD (totarol 0.0002%, 24 h): 0.682
- Viable bacterial count by quantitative culture (cfu/ml) (totarol 0.0004%, 0 h): 6 × 10^5 cfu/ml
- OD, average of 3 measurements (totarol 0.0004%, 0 h): 0.305
- Viable bacterial count by quantitative culture (cfu/ml) (totarol 0.0004%, 8 h): 6 × 10^6 cfu/ml
- OD, average of 3 measurements (totarol 0.0004%, 8 h): 0.318
- Viable bacterial count by quantitative culture (cfu/ml) (totarol 0.0004%, 16 h): 9.1 × 10^5 cfu/ml
- OD, average of 3 measurements (totarol 0.0004%, 16 h): 0.493
- Viable bacterial count by quantitative culture (cfu/ml) (totarol 0.0004%, 24 h): 2 × 10^7 cfu/ml
- OD (totarol 0.0004%, 24 h): 0.668
- Viable bacterial count by quantitative culture (cfu/ml) (totarol 0.0007%, 0 h): 4.5 × 10^5 cfu/ml
- OD, average of 3 measurements (totarol 0.0007%, 0 h): 0.297
- Inoculation cfu/ml (totarol 0.0007%, 8 h): 6 × 10^4 cfu/ml
- OD, average of 3 measurements (totarol 0.0007%, 8 h): 0.319
- Viable bacterial count by quantitative culture (cfu/ml) (totarol 0.0007%, 16 h): 3.5 × 10^6 cfu/ml
- OD, average of 3 measurements (totarol 0.0007%, 16 h): 0.630
- Viable bacterial count by quantitative culture (cfu/ml) (totarol 0.0007%, 24 h): 6 × 10^7 cfu/ml
- OD (totarol 0.0007%, 24 h): 0.941
- Viable bacterial count by quantitative culture (cfu/ml) (totarol 0.0013%, 0 h): 3.3 × 10^5 cfu/ml
- OD, average of 3 measurements (totarol 0.0013%, 0 h): 0.299
- Viable bacterial count by quantitative culture (cfu/ml) (totarol 0.0013%, 8 h): 0 cfu/ml
- OD, average of 3 measurements (totarol 0.0013%, 8 h): 0.302
- Viable bacterial count by quantitative culture (cfu/ml) (totarol 0.0013%, 16 h): 0 cfu/ml
- OD, average of 3 measurements (totarol 0.0013%, 16 h): 0.302
- Viable bacterial count by quantitative culture (cfu/ml) (totarol 0.0013%, 24 h): 0 cfu/ml
- OD (totarol 0.0013%, 24 h): 0.302
- Viable bacterial count by quantitative culture (cfu/ml) (totarol 0.0025%, 0 h): 2.6 × 10^5 cfu/ml
- OD, average of 3 measurements (totarol 0.0025%, 0 h): 0.289
- Viable bacterial count by quantitative culture (cfu/ml) (totarol 0.0025%, 8 h): 0 cfu/ml
- OD, average of 3 measurements (totarol 0.0025%, 8 h): 0.290
- Viable bacterial count by quantitative culture (cfu/ml) (totarol 0.0025%, 16 h): 0 cfu/ml
- OD, average of 3 measurements (totarol 0.0025%, 16 h): 0.291
- Viable bacterial count by quantitative culture (cfu/ml) (totarol 0.0025%, 24 h): 0 cfu/ml
- OD (totarol 0.0025%, 24 h): 0.291
- Viable bacterial count by quantitative culture (cfu/ml) (totarol 0.005%, 0 h): 1.5 × 10^5 cfu/ml
- OD, average of 3 measurements (totarol 0.005%, 0 h): 0.288
- Viable bacterial count by quantitative culture (cfu/ml) (totarol 0.005%, 8 h): 0 cfu/ml
- OD, average of 3 measurements (totarol 0.005%, 8 h): 0.292
- Viable bacterial count by quantitative culture (cfu/ml) (totarol 0.005%, 16 h): 0 cfu/ml
- OD, average of 3 measurements (totarol 0.005%, 16 h): 0.296
- Viable bacterial count by quantitative culture (cfu/ml) (totarol 0.005%, 24 h): 0 cfu/ml
- OD (totarol 0.005%, 24 h): 0.300
- Viable bacterial count by quantitative culture (cfu/ml) (totarol 0.01%, 0 h): 10^5 cfu/ml
- OD, average of 3 measurements (totarol 0.01%, 0 h): 0.297
- Viable bacterial count by quantitative culture (cfu/ml) (totarol 0.01%, 8 h): 0 cfu/ml
- OD, average of 3 measurements (totarol 0.01%, 8 h): 0.295
- Viable bacterial count by quantitative culture (cfu/ml) (totarol 0.01%, 16 h): 0 cfu/ml
- OD, average of 3 measurements (totarol 0.01%, 16 h): 0.301
- Viable bacterial count by quantitative culture (cfu/ml) (totarol 0.01%, 24 h): 0 cfu/ml
- OD (totarol 0.01%, 24 h): 0.307
- Viable bacterial count by quantitative culture (cfu/ml) (totarol 0.02%, 0 h): 10^5 cfu/ml
- OD, average of 3 measurements (totarol 0.02%, 0 h): 0.318
- Viable bacterial count by quantitative culture (cfu/ml) (totarol 0.02%, 8 h): 0 cfu/ml
- OD, average of 3 measurements (totarol 0.02%, 8 h): 0.323
- Viable bacterial count by quantitative culture (cfu/ml) (totarol 0.02%, 16 h): 0 cfu/ml
- OD, average of 3 measurements (totarol 0.02%, 16 h): 0.324
- Viable bacterial count by quantitative culture (cfu/ml) (totarol 0.02%, 24 h): 0 cfu/ml
- OD (totarol 0.02%, 24 h): 0.324
- Viable bacterial count by quantitative culture (cfu/ml) (totarol 0.04%, 0 h): 3 × 10^5 cfu/ml
- OD, average of 3 measurements (totarol 0.04%, 0 h): 0.406
- Viable bacterial count by quantitative culture (cfu/ml) (totarol 0.04%, 8 h): 0 cfu/ml
- OD, average of 3 measurements (totarol 0.04%, 8 h): 0.535
- Viable bacterial count by quantitative culture (cfu/ml) (totarol 0.04%, 16 h): 0 cfu/ml
- OD, average of 3 measurements (totarol 0.04%, 16 h): 0.489
- Viable bacterial count by quantitative culture (cfu/ml) (totarol 0.04%, 24 h): 0 cfu/ml
- OD (totarol 0.04%, 24 h): 0.405
- Viable bacterial count by quantitative culture (cfu/ml) (totarol 0.08%, 0 h): 5 × 10^5 cfu/ml
- OD, average of 3 measurements (totarol 0.08%, 0 h): 0.563
- Viable bacterial count by quantitative culture (cfu/ml) (totarol 0.08%, 8 h): 0 cfu/ml
- OD, average of 3 measurements (totarol 0.08%, 8 h): 0.564
- Viable bacterial count by quantitative culture (cfu/ml) (totarol 0.08%, 16 h): 0 cfu/ml
- OD, average of 3 measurements (totarol 0.08%, 16 h): 0.540
- Viable bacterial count by quantitative culture (cfu/ml) (totarol 0.08%, 24 h): 0 cfu/ml
- OD (totarol 0.08%, 24 h): 0.430
- Viable bacterial count by quantitative culture (cfu/ml) (totarol 0.16%, 0 h): 2 × 10^5 cfu/ml
- OD, average of 3 measurements (totarol 0.16%, 0 h): 0.512
- Viable bacterial count by quantitative culture (cfu/ml) (totarol 0.16%, 8 h): 0 cfu/ml
- OD, average of 3 measurements (totarol 0.16%, 8 h): 0.605
- Viable bacterial count by quantitative culture (cfu/ml) (totarol 0.16%, 16 h): 0 cfu/ml
- OD, average of 3 measurements (totarol 0.16%, 16 h): 0.569
- Viable bacterial count by quantitative culture (cfu/ml) (totarol 0.16%, 24 h): 0 cfu/ml
- OD (totarol 0.16%, 24 h): 0.615

Source: patent US11534412B2, “Application of totarol and pharmaceutical composition containing totarol” (Emergopharm SP. Z O.O. SP.K., priority 2017, dated 2022)
